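Five compound concentrations were applied to cells in 96-well plates for 48 hours; endpoints were derived by simple linear interpolation of the resulting dose-response curve. Here, GI50 denotes the concentration required for 50% inhibition of growth. TGI: total growth inhibition.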
Tests used:
Assay in all cases: NCI-60 cell line screen, 48 h
786-0 renal = tested on: 786-0 renal
A498 renal = tested on: A498 renal
A549 NSCLC = tested on: A549 NSCLC
ACHN renal = tested on: ACHN renal
BT-549 breast = tested on: BT-549 breast
CAKI-1 renal = tested on: CAKI-1 renal
CCRF-CEM leukemia = tested on: CCRF-CEM leukemia
COLO 205 colon = tested on: COLO 205 colon
DU-145 prostate = tested on: DU-145 prostate
EKVX NSCLC = tested on: EKVX NSCLC
HCC-2998 colon = tested on: HCC-2998 colon
HCT-116 colon = tested on: HCT-116 colon
HCT-15 colon = tested on: HCT-15 colon
HL-60(TB) leukemia = tested on: HL-60(TB) leukemia
HOP-62 NSCLC = tested on: HOP-62 NSCLC
HOP-92 NSCLC = tested on: HOP-92 NSCLC
HS 578T breast = tested on: HS 578T breast
HT29 colon = tested on: HT29 colon
IGROV1 ovarian = tested on: IGROV1 ovarian
KM12 colon = tested on: KM12 colon
LOX IMVI melanoma = tested on: LOX IMVI melanoma
M14 melanoma = tested on: M14 melanoma
MALME-3M melanoma = tested on: MALME-3M melanoma
MCF7 breast = tested on: MCF7 breast
MDA-MB-231 breast = tested on: MDA-MB-231 breast
MOLT-4 leukemia = tested on: MOLT-4 leukemia
NCI-H226 lung = tested on: NCI-H226 lung
NCI-H23 lung = tested on: NCI-H23 lung
NCI-H460 lung = tested on: NCI-H460 lung
NCI-H522 lung = tested on: NCI-H522 lung
NCI/ADR-RES ovarian = tested on: NCI/ADR-RES ovarian
OVCAR-3 ovarian = tested on: OVCAR-3 ovarian
OVCAR-4 ovarian = tested on: OVCAR-4 ovarian
OVCAR-5 ovarian = tested on: OVCAR-5 ovarian
OVCAR-8 ovarian = tested on: OVCAR-8 ovarian
PC-3 prostate = tested on: PC-3 prostate
RPMI-8226 leukemia = tested on: RPMI-8226 leukemia
RXF 393 renal = tested on: RXF 393 renal
SF-268 CNS = tested on: SF-268 CNS
SF-295 CNS = tested on: SF-295 CNS
SF-539 CNS = tested on: SF-539 CNS
SK-MEL-2 melanoma = tested on: SK-MEL-2 melanoma
SK-MEL-28 melanoma = tested on: SK-MEL-28 melanoma
SK-MEL-5 melanoma = tested on: SK-MEL-5 melanoma
SK-OV-3 ovarian = tested on: SK-OV-3 ovarian
SN12C renal = tested on: SN12C renal
SNB-19 CNS = tested on: SNB-19 CNS
SNB-75 CNS = tested on: SNB-75 CNS
SR leukemia = tested on: SR leukemia
SW-620 colon = tested on: SW-620 colon
T-47D breast = tested on: T-47D breast
TK-10 renal = tested on: TK-10 renal
U251 CNS = tested on: U251 CNS
UACC-257 melanoma = tested on: UACC-257 melanoma
UACC-62 melanoma = tested on: UACC-62 melanoma
UO-31 renal = tested on: UO-31 renal
K-562 leukemia = tested on: K-562 leukemia
MDA-MB-435 = tested on: MDA-MB-435

## COc1ccccc1/C=C/C=N/NC1=NC2C(S1)N(C)C(=O)N2C (stereo not drawn)
786-0 renal
  GI50: 5.77 µM
  TGI: 70.3 µM
A498 renal
  GI50: 11.1 µM
  TGI: 94.6 µM
A549 NSCLC
  GI50: 7.31 µM
  TGI: > 100 µM
ACHN renal
  GI50: 5.67 µM
  TGI: 93.9 µM
BT-549 breast
  GI50: 2.94 µM
  TGI: 12.9 µM
CAKI-1 renal
  GI50: 4.11 µM
  TGI: > 100 µM
CCRF-CEM leukemia
  GI50: 4.42 µM
  TGI: > 100 µM
COLO 205 colon
  GI50: 4.8 µM
  TGI: 20.3 µM
DU-145 prostate
  GI50: 5.74 µM
  TGI: > 100 µM
EKVX NSCLC
  GI50: 9.85 µM
  TGI: > 100 µM
HCC-2998 colon
  GI50: 10.5 µM
  TGI: 33.2 µM
HCT-116 colon
  GI50: 4.36 µM
  TGI: 90.8 µM
HCT-15 colon
  GI50: 3.96 µM
  TGI: > 100 µM
HL-60(TB) leukemia
  GI50: 0.545 µM
  TGI: 4.37 µM
HOP-62 NSCLC
  GI50: 7.76 µM
  TGI: > 100 µM
HOP-92 NSCLC
  GI50: 3.39 µM
  TGI: 32.3 µM
HS 578T breast
  GI50: 3.82 µM
  TGI: > 100 µM
HT29 colon
  GI50: 3.33 µM
  TGI: 13.2 µM
IGROV1 ovarian
  GI50: 8.3 µM
  TGI: > 100 µM
KM12 colon
  GI50: 3.92 µM
  TGI: 17.7 µM
LOX IMVI melanoma
  GI50: 4.94 µM
  TGI: 21.2 µM
M14 melanoma
  GI50: 3.9 µM
  TGI: 43 µM
MALME-3M melanoma
  GI50: 4.73 µM
  TGI: 77.7 µM
MCF7 breast
  GI50: 2.91 µM
  TGI: > 100 µM
MDA-MB-231 breast
  GI50: 9.27 µM
  TGI: 75.8 µM
MOLT-4 leukemia
  GI50: 4.54 µM
  TGI: > 100 µM
NCI-H226 lung
  GI50: 3.53 µM
  TGI: 90.2 µM
NCI-H23 lung
  GI50: 7.62 µM
  TGI: > 100 µM
NCI-H460 lung
  GI50: 3.95 µM
  TGI: > 100 µM
NCI-H522 lung
  GI50: 1.68 µM
  TGI: 4.54 µM
NCI/ADR-RES ovarian
  GI50: 4.19 µM
  TGI: > 100 µM
OVCAR-3 ovarian
  GI50: 2.5 µM
  TGI: 6.6 µM
OVCAR-4 ovarian
  GI50: 9.21 µM
  TGI: > 100 µM
OVCAR-5 ovarian
  GI50: 5.55 µM
  TGI: > 100 µM
OVCAR-8 ovarian
  GI50: 5.47 µM
  TGI: 51.9 µM
PC-3 prostate
  GI50: 5.28 µM
  TGI: > 100 µM
RPMI-8226 leukemia
  GI50: 4.8 µM
  TGI: > 100 µM
RXF 393 renal
  GI50: 2.43 µM
  TGI: 17 µM
SF-268 CNS
  GI50: 6.78 µM
  TGI: 38.5 µM
SF-295 CNS
  GI50: 3.68 µM
  TGI: 38.2 µM
SF-539 CNS
  GI50: 2.59 µM
  TGI: 8.6 µM
SK-MEL-2 melanoma
  GI50: 3.02 µM
  TGI: 15.1 µM
SK-MEL-28 melanoma
  GI50: 8.86 µM
  TGI: > 100 µM
SK-MEL-5 melanoma
  GI50: 3.61 µM
  TGI: 13.8 µM
SK-OV-3 ovarian
  GI50: 6.93 µM
  TGI: 66.4 µM
SN12C renal
  GI50: 4.4 µM
  TGI: 30.7 µM
SNB-19 CNS
  GI50: 6.28 µM
  TGI: > 100 µM
SNB-75 CNS
  GI50: 2.82 µM
  TGI: 49.3 µM
SR leukemia
  GI50: 2.74 µM
  TGI: 30.4 µM
SW-620 colon
  GI50: 4.07 µM
  TGI: > 100 µM
T-47D breast
  GI50: 5.6 µM
  TGI: > 100 µM
TK-10 renal
  GI50: 14.3 µM
  TGI: 72.5 µM
U251 CNS
  GI50: 5.02 µM
  TGI: > 100 µM
UACC-257 melanoma
  GI50: 8.11 µM
  TGI: > 100 µM
UACC-62 melanoma
  GI50: 2.99 µM
  TGI: 34.1 µM
UO-31 renal
  GI50: 4.03 µM
  TGI: 43.6 µM

## CN(C)c1ccc(-c2c(NC(C)(C)C)nc3c(OCCc4ccccc4)cccn23)cc1
786-0 renal
  GI50: 3.57 µM
  TGI: 15.5 µM
A498 renal
  GI50: 2.52 µM
  TGI: 7.83 µM
A549 NSCLC
  GI50: 3.58 µM
  TGI: > 100 µM
ACHN renal
  GI50: 3.24 µM
  TGI: > 100 µM
BT-549 breast
  GI50: 2.98 µM
  TGI: 8.45 µM
CAKI-1 renal
  GI50: 2.95 µM
  TGI: 10.5 µM
CCRF-CEM leukemia
  GI50: 3.29 µM
  TGI: > 100 µM
COLO 205 colon
  GI50: 2.2 µM
  TGI: 5.24 µM
DU-145 prostate
  GI50: 4.16 µM
  TGI: > 100 µM
EKVX NSCLC
  GI50: 2.89 µM
  TGI: 9.64 µM
HCC-2998 colon
  GI50: 3.55 µM
  TGI: > 100 µM
HCT-116 colon
  GI50: 3.23 µM
  TGI: 20.8 µM
HCT-15 colon
  GI50: 3.3 µM
  TGI: 24 µM
HL-60(TB) leukemia
  GI50: 3.13 µM
  TGI: 8.38 µM
HOP-62 NSCLC
  GI50: 3.4 µM
  TGI: 16.9 µM
HOP-92 NSCLC
  GI50: 2.09 µM
  TGI: 6.15 µM
HS 578T breast
  GI50: 2.62 µM
  TGI: 9.02 µM
HT29 colon
  GI50: 2 µM
  TGI: 5.67 µM
IGROV1 ovarian
  GI50: 4.3 µM
  TGI: > 100 µM
K-562 leukemia
  GI50: 3.33 µM
  TGI: 39.3 µM
KM12 colon
  GI50: 3.3 µM
  TGI: 16.1 µM
LOX IMVI melanoma
  GI50: 3 µM
  TGI: 20.7 µM
M14 melanoma
  GI50: 3.48 µM
  TGI: 75.6 µM
MALME-3M melanoma
  GI50: 2.3 µM
  TGI: 5.95 µM
MCF7 breast
  GI50: 2.87 µM
  TGI: 9.82 µM
MDA-MB-231 breast
  GI50: 2.71 µM
  TGI: 7.87 µM
MDA-MB-435
  GI50: 3.16 µM
  TGI: 18.1 µM
MOLT-4 leukemia
  GI50: 3.46 µM
  TGI: 14 µM
NCI-H226 lung
  GI50: 2.72 µM
  TGI: 8.86 µM
NCI-H23 lung
  GI50: 2.91 µM
  TGI: 10.9 µM
NCI-H460 lung
  GI50: 2.99 µM
  TGI: 9.66 µM
NCI-H522 lung
  GI50: 2.59 µM
  TGI: 6.65 µM
NCI/ADR-RES ovarian
  GI50: 3.09 µM
  TGI: > 100 µM
OVCAR-3 ovarian
  GI50: 3.04 µM
  TGI: 12.9 µM
OVCAR-4 ovarian
  GI50: 3.06 µM
  TGI: 12.8 µM
OVCAR-5 ovarian
  GI50: 3.22 µM
  TGI: > 100 µM
OVCAR-8 ovarian
  GI50: 3.04 µM
  TGI: > 100 µM
PC-3 prostate
  GI50: 3.09 µM
  TGI: > 100 µM
RPMI-8226 leukemia
  GI50: 2.53 µM
  TGI: 6.74 µM
RXF 393 renal
  GI50: 1.94 µM
  TGI: 5.66 µM
SF-268 CNS
  GI50: 3.53 µM
  TGI: > 100 µM
SF-295 CNS
  GI50: 2.84 µM
  TGI: 8.7 µM
SF-539 CNS
  GI50: 4.16 µM
  TGI: 19.2 µM
SK-MEL-2 melanoma
  GI50: 2.31 µM
  TGI: 4.99 µM
SK-MEL-28 melanoma
  GI50: 3.85 µM
  TGI: > 100 µM
SK-MEL-5 melanoma
  GI50: 1.83 µM
  TGI: 3.37 µM
SK-OV-3 ovarian
  GI50: 3.08 µM
  TGI: 35.8 µM
SN12C renal
  GI50: 2.93 µM
  TGI: > 100 µM
SNB-19 CNS
  GI50: 3.43 µM
  TGI: 15.6 µM
SNB-75 CNS
  GI50: 1.79 µM
  TGI: 8.55 µM
SR leukemia
  GI50: 3.04 µM
  TGI: 18.7 µM
SW-620 colon
  GI50: 2.94 µM
  TGI: 22.1 µM
T-47D breast
  GI50: 3.43 µM
  TGI: > 100 µM
TK-10 renal
  GI50: 2.34 µM
  TGI: 6.8 µM
U251 CNS
  GI50: 3.24 µM
  TGI: 11.4 µM
UACC-257 melanoma
  GI50: 2.78 µM
  TGI: 8.19 µM
UACC-62 melanoma
  GI50: 3.53 µM
  TGI: 52.1 µM
UO-31 renal
  GI50: 2.01 µM
  TGI: 7.22 µM

Source: PubChem BioAssay (NCI)
